As usually defined, the IC50 is the midpoint of a concentration-inhibition curve. A low value points to higher potency.

The target in this assay is NLRP3 (Homo sapiens, UniProt Q96P20). Kind of assay: THP-1 cell-based NLRP3 activation assay. Further details: endogenous in cells; host or cells: THP-1 cells (PMA-differentiated, LPS-primed, nigericin-stimulated). The following applies: PMA-differentiated THP-1 cells, LPS 100 ng/mL then 10 μM nigericin. On the procedure: THP-1 cells are cultured in complete media (CM) until they reach logarithmic growth and achieve a viability >90%. CM is composed of RPMI-1640 (+Glutamax)/10% fetal bovine serum/55 μM β-mercaptoethanol/pen/strep. Cells are spun down and resuspended to 1,000,000 cells/mL in CM containing either 20 nM or 500 nM PMA. 150,000 cells (150 μL) are then added to each well of a 96-well TC plate and incubated for either 24 hr or 3 hr, respectively, in a standard cell culture incubator (37° C.; 5% CO2). After this incubation, the plate is tilted and media carefully removed. 200 μL of CM containing 100 ng/mL LPS is then added to the wells and the cells incubated an additional 3 hrs. The media is again removed and replaced with Opti-Mem medium containing pre-determined dilutions of test compounds in replicate wells. After a 30 min incubation, 10 μM nigericin (final concentration) in Opti-Mem medium with the corresponding concentration of compound is added to the wells for an additional 1 hr. Positive control wells contain 10 μM nigericin in Opti-Mem in the absence of test compound, while negative control wells contain Opti-Mem only. […] Once supernatants are removed, the relative viability of adherent cells in the 96-well TC plate are determined using a CellTiter-Glo® luminescent cell viability assay (Promega).
Sequence of NLRP3 (Q96P20 whole entry): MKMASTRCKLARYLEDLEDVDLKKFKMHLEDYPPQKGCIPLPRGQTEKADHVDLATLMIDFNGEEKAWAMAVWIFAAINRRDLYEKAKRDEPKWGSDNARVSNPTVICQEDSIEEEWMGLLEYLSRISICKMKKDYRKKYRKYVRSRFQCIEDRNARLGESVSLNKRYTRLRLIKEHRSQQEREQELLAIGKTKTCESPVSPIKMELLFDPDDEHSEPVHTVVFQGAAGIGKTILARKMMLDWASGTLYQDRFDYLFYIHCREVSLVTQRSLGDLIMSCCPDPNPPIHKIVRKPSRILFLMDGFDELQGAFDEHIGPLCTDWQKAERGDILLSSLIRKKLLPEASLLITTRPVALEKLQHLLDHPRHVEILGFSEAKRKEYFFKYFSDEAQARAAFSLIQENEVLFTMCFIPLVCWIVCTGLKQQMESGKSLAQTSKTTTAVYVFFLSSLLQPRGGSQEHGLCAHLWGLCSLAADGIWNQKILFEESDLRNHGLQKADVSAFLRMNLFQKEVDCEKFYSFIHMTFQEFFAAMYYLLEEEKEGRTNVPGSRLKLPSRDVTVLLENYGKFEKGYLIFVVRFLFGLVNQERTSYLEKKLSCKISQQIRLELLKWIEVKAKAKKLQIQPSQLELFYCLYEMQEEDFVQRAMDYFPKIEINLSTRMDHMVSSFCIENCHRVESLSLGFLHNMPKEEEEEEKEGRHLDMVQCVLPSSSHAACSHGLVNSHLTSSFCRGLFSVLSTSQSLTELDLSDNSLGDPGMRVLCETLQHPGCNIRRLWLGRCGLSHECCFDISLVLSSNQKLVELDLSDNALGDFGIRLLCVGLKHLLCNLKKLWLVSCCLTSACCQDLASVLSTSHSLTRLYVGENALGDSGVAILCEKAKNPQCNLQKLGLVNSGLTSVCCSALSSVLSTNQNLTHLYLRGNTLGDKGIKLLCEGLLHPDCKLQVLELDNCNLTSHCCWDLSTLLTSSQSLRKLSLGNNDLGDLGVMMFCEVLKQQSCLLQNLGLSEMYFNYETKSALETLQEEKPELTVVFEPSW
In turn, `CCOc1cc(C(=O)N(C[C@@H](C)O)[C@H](C)c2cnc(C)c3cn[nH]c23)ccc1-c1cccc(F)c1` [Compound 058] registered an IC50 of less than 100 nM.

`CCOc1cc(C(=O)N(C[C@H](C)O)[C@H](C)c2cnc(C)c3cn[nH]c23)ccc1-c1cccc(F)c1` [Compound 059] returned an IC50 of 1000 to 15000 nM.

`CCOc1cc(C(=O)N(C[C@@H](C)O)[C@@H](C)c2cnc(C)c3cn[nH]c23)ccc1-c1cccc(F)c1` [Compound 060] registered an IC50 greater than 15000 nM.

`CCOc1cc(C(=O)N(C[C@H](C)O)[C@@H](C)c2cnc(C)c3cn[nH]c23)ccc1-c1cccc(F)c1` [Compound 061] displayed a half-maximal inhibitory concentration (IC50) greater than 15000 nM.

As to `CCOc1cc(C(=O)N(CC(C)(C)O)C(C)c2cnc(C)c3cn[nH]c23)ccc1-c1cccc(F)c1` (stereo not drawn) [Compound 062], the IC50 is less than 100 nM.

`CCOc1cc(C(=O)N(C)[C@H](CCNCCF)c2cncc3cn[nH]c23)ccc1-c1cccc(F)c1` [Compound 063] showed an IC50 of less than 100 nM.

With `CCOc1cc(C(=O)N(C)[C@H](CCN(CCF)CCF)c2cncc3cn[nH]c23)ccc1-c1cccc(F)c1` [Compound 064], the IC50 was less than 100 nM.

`CCOc1cc(C(=O)N(C)[C@H](c2cnc(C)c3cn[nH]c23)C2CN(C)C2)ccc1-c1cccc(F)c1` [Compound 065] registered an IC50 of less than 100 nM.

`CCOc1cc(C(=O)N(C)C(CCN(C)CC)c2cncc3cn[nH]c23)ccc1-c1cccc(F)c1` (stereo not drawn) [Compound 066] came in with an IC50 of less than 100 nM.

Take `CCOc1cc(C(=O)N(C)[C@H](CCN(C)CCF)c2cncc3cn[nH]c23)ccc1-c1cccc(Cl)c1` [Compound 067]: the half-inhibitory concentration (IC50) was less than 100 nM.

The molecule `CCOc1cc(C(=O)N(C)[C@H](CCN(C)C)c2cnc(CO)c3cn[nH]c23)ccc1-c1cccc(Cl)c1` [Compound 068] registered an IC50 of less than 100 nM.

`CCOc1cc(C(=O)N(C)[C@H](CCN2CC(F)C2)c2cncc3cn[nH]c23)ccc1-c1cccc(F)c1` [Compound 070] registered a concentration for half-maximal inhibition (IC50) of less than 100 nM.

Regarding `CCOc1cc(C(=O)N(C)[C@@H](c2cnc(C)c3cn[nH]c23)C2CN(C)C2)ccc1-c1cccc(F)c1` [Compound 071], the half-maximal inhibitory concentration (IC50) is less than 100 nM.

`CCOc1cc(C(=O)N(C)[C@H](c2cnc(C)c3cn[nH]c23)C2CNC2)ccc1-c1cccc(F)c1` [Compound 072] registered an IC50 of less than 100 nM.

Turning to `CN(C)CC[C@H](c1cncc2cn[nH]c12)N(C)C(=O)c1ccc(-c2ccccc2)c(OC2CC2)c1` [Compound 073], the IC50 is less than 100 nM.

For `CCOc1cc(C(=O)N(C)[C@H](CCN(C)C)c2cnc(C)c3cn[nH]c23)ccc1-c1ccccc1` [Compound 074], the IC50 is less than 100 nM.

`CCOc1cc(C(=O)N(C)[C@H](CCN(C)C)c2cnc(C)c3cn[nH]c23)ccc1-c1cccc(F)c1` [Compound 075] registered a half-maximal inhibitory concentration (IC50) of less than 100 nM.

For `CCOc1cc(C(=O)N(C)[C@H](CCN(C)C)c2cnc(C)c3cn[nH]c23)ccc1-c1cccc(Cl)c1` [Compound 076], the IC50 is less than 100 nM.

Take `CCOc1cc(C(=O)N(C)[C@H](CCN2CCC2)c2cncc3cn[nH]c23)ccc1-c1cccc(F)c1` [Compound 077]: the concentration for half-maximal inhibition (IC50) was less than 100 nM.

`CCOc1cc(C(=O)N(C)[C@@H](c2cnc(C)c3cn[nH]c23)C2CNC2)ccc1-c1cccc(F)c1` [Compound 078] registered a half-maximal inhibitory concentration (IC50) of less than 100 nM.

With `CCOc1cc(C(=O)N(C)[C@@H](c2cncc3cn[nH]c23)C2CN(C)C2)ccc1-c1cccc(F)c1` [Compound 079], the IC50 was less than 100 nM.

`C=CC(=O)NCC[C@H](c1cncc2cn[nH]c12)N(C)C(=O)c1ccc(-c2cccc(F)c2)c(OCC)c1` [Compound 080] came in with a concentration for half-maximal inhibition (IC50) of less than 100 nM.

As to `CCOc1cc(C(=O)N(C)[C@@H](c2cncc3cn[nH]c23)[C@@H]2CCN(C)C2)ccc1-c1cccc(F)c1` [Compound 081], the IC50 is less than 100 nM.

`CCOc1cc(C(=O)N(C)[C@@H](c2cncc3cn[nH]c23)[C@H]2CCN(C)C2)ccc1-c1cccc(F)c1` [Compound 082]: the 50% inhibitory concentration (IC50) is less than 100 nM.

As for `CCOc1cc(C(=O)N(C)[C@H](CCN(C)C)c2cnc(C)c3cn[nH]c23)ccc1-c1cc(Cl)cc(Cl)c1` [Compound 083], the IC50 was less than 100 nM.

The molecule `CCOc1cc(C(=O)N(C)[C@H](CCN(C)C)c2cnc(C)c3cn[nH]c23)ccc1-c1cccc(C)c1` [Compound 084] came in with an IC50 of less than 100 nM.

`CCOc1cc(C(=O)N(C)[C@H](CCN2C[C@@H](F)[C@@H](F)C2)c2cncc3cn[nH]c23)ccc1-c1cccc(F)c1` [Compound 086] registered an IC50 of less than 100 nM.

The molecule `CCOc1cc(C(=O)N(C)[C@H](CCN(C)C)c2cncc3cn[nH]c23)ccc1-c1cc(Cl)cc(Cl)c1` [Compound 090] showed an IC50 of less than 100 nM.

On to `CCOc1cc(C(=O)N(C)[C@H](CCN(C)C)c2cncc3cn[nH]c23)ccc1-c1cccc(C)c1` [Compound 091], for which the concentration for half-maximal inhibition (IC50) was less than 100 nM.

`CCOc1cc(C(=O)N(C)[C@H](c2cncc3cn[nH]c23)C2CNC2)ccc1-c1cccc(F)c1` [Compound 092]: the half-maximal inhibitory concentration (IC50) lay within 100 to 500 nM.

On to `CCOc1cc(C(=O)N(C)[C@H](CCN2C[C@@H](F)[C@H](F)C2)c2cncc3cn[nH]c23)ccc1-c1cccc(F)c1` [Compound 093], for which the concentration for half-maximal inhibition (IC50) is less than 100 nM.

The molecule `CCOc1cc(C(=O)N(C)[C@H](CCN(C)CC(F)F)c2cncc3cn[nH]c23)ccc1-c1cccc(F)c1` [Compound 094] gave an IC50 of less than 100 nM.

`CCOc1cc(C(=O)N(C)[C@H](CCN(C)CCF)c2cncc3cn[nH]c23)ccc1-c1cccc(F)c1` [Compound 095] had an IC50 of less than 100 nM.

In the case of `CCOc1cc(C(=O)N(C)[C@@H](c2cncc3cn[nH]c23)C2CNC2)ccc1-c1cccc(F)c1` [Compound 097], the IC50 is less than 100 nM.

In the case of `CCOc1cc(C(=O)N(C)[C@H](CCN(C)C)c2cncc3cn[nH]c23)ccc1-c1cccc(Cl)c1` [Compound 098], the half-inhibitory concentration (IC50) was less than 100 nM.

In turn, `CCOc1cc(C(=O)N(C)[C@H](CCN(C)C)c2cnc(CO)c3cn[nH]c23)ccc1-c1cccc(F)c1` [Compound 099] registered a concentration for half-maximal inhibition (IC50) of less than 100 nM.

For the molecule `CCOc1cc(C(=O)N(C)[C@H](CCN2CCC(F)(F)C2)c2cncc3cn[nH]c23)ccc1-c1cccc(F)c1` [Compound 100], the IC50 was less than 100 nM.

Molecule `CCOc1cc(C(=O)N(C)[C@H](CCN2CC(F)(F)C2)c2cncc3cn[nH]c23)ccc1-c1cccc(F)c1` [Compound 101] registered a 50% inhibitory concentration (IC50) of less than 100 nM.

Take `CN(C)CC[C@H](c1cncc2cn[nH]c12)N(C)C(=O)c1ccc(-c2cccc(Cl)c2)c(OC2CC2)c1` [Compound 102]: the IC50 is less than 100 nM.

`CCOc1cc(C(=O)N(C)[C@H](CCN(CC)CC)c2cncc3cn[nH]c23)ccc1-c1cccc(F)c1` [Compound 103] displayed an IC50 of less than 100 nM.

Turning to `CCOc1cc(C(=O)N(C)[C@H](CCN2CCCC2)c2cncc3cn[nH]c23)ccc1-c1cccc(F)c1` [Compound 104], the half-inhibitory concentration (IC50) is less than 100 nM.

Molecule `CCOc1cc(C(=O)N(CCN2C[C@H](F)C[C@H](F)C2)Cc2cncc3cn[nH]c23)ccc1-c1cccc(F)c1` [Compound 106] returned a 50% inhibitory concentration (IC50) of less than 100 nM.

Molecule `CCOc1cc(C(=O)N(CCN2C[C@@H](F)[C@H](F)C2)Cc2cncc3cn[nH]c23)ccc1-c1cccc(F)c1` [Compound 107] registered an IC50 of less than 100 nM.

For the molecule `CCOc1cc(C(=O)N(CCN2C[C@@H](F)[C@@H](F)C2)Cc2cncc3cn[nH]c23)ccc1-c1cccc(F)c1` [Compound 108], the IC50 was less than 100 nM.

`CCOc1cc(C(=O)N(CCN2CCC(F)C2)Cc2cncc3cn[nH]c23)ccc1-c1cccc(F)c1` (stereo not drawn) [Compound 109] displayed a 50% inhibitory concentration (IC50) of less than 100 nM.

Take `CCOc1cc(C(=O)N(CCN2CCC(F)CC2)Cc2cncc3cn[nH]c23)ccc1-c1cccc(F)c1` [Compound 110]: the 50% inhibitory concentration (IC50) was less than 100 nM.

`CCOc1cc(C(=O)N(CCN2C[C@@H](F)C[C@H](F)C2)Cc2cncc3cn[nH]c23)ccc1-c1cccc(F)c1` [Compound 111] yielded an IC50 of less than 100 nM.

In the case of `CCOc1cc(C(=O)N(CCN2CCCCC2)Cc2cncc3cn[nH]c23)ccc1-c1ccccc1` [Compound 112], the IC50 was less than 100 nM.

For the molecule `CCOc1cc(C(=O)N(CCN2CCCC(F)(F)C2)Cc2cncc3cn[nH]c23)ccc1-c1cccc(F)c1` [Compound 113], the IC50 is less than 100 nM.

`CCOc1cc(C(=O)N(CCN2CCCC(F)C2)Cc2cncc3cn[nH]c23)ccc1-c1cccc(F)c1` (stereo not drawn) [Compound 114] had a concentration for half-maximal inhibition (IC50) of less than 100 nM.

With `CCOc1cc(C(=O)N(CCN2CCC(F)(F)C2)Cc2cncc3cn[nH]c23)ccc1-c1cccc(F)c1` [Compound 115], the IC50 was less than 100 nM.

Turning to `CCOc1cc(C(=O)N(CCNC)Cc2cncc3cn[nH]c23)ccc1-c1cccc(F)c1` [Compound 116], the half-maximal inhibitory concentration (IC50) was less than 100 nM.

Molecule `CCOc1cc(C(=O)N(CCN2CCCCC2)Cc2cncc3cn[nH]c23)ccc1-c1cccc(F)c1` [Compound 117] registered an IC50 of less than 100 nM.

`CCOc1cc(CN(CCN2CCOCC2)Cc2cncc3cn[nH]c23)ccc1-c1cccc(F)c1` [Compound 118] displayed an IC50 of 100 to 500 nM.

Molecule `CCOc1cc(C(=O)N(CCN2CCCC2)Cc2cncc3cn[nH]c23)ccc1-c1cccc(F)c1` [Compound 119] returned an IC50 of less than 100 nM.

The molecule `CCOc1cc(CN(CCN(CC)CC)Cc2cncc3cn[nH]c23)ccc1-c1cccc(F)c1` [Compound 120] displayed a half-inhibitory concentration (IC50) of less than 100 nM.

In the case of `CCOc1cc(C(=O)N(C)[C@H](CN(C)C)c2cncc3cn[nH]c23)ccc1-c1cccc(F)c1` [Compound 121], the concentration for half-maximal inhibition (IC50) is less than 100 nM.

These data come from patent US12509459B2, “Inhibitors of NLRP3 inflammasome” (BioAge Labs, Inc., priority 2024, dated 2025).
